PMC5155146, “Thioredoxin-interacting protein regulates haematopoietic stem cell ageing and rejuvenation by inhibiting p38 kinase activity” (Nature Communications, 2016)

Key:
mice = test: 5-FU haematopoietic stress in mice; assay type: in vivo, mouse
Procedure: young TXNIP+/+ or T X N IP -/- mice after 5-FU (150 mg kg-1) administration (n=10). NAC was
i.p. injected 100 m g kg -1 daily starting at da y -1. […] We i.p. injected
5- FU (150 mg kg-1) and NAC (100 mg kg-1) then examined ROS in HSCs after 24 hours
Data are mean ± s.d. Statistical significance was determined using a two-t ailed
Student’s t -tests. *P< 0.05, **P < 0.01, ***P <0.001.

TXNIP−/− HSCs = test: ROS and phospho-p38 of LT-HSCs after NAC treatment in vivo; set-up: species or system mouse; details: 12-month-old TXNIP−/− mice, NAC 100 mg kg−1 i.p., after 12 hours; n=3
Procedure: Supplementary Figure 2. Expression of p38 and TXNIP in HSCs and their interaction.
(a,b) ROS (a) and phospho- p38 level (b) of LT-HSCs after NAC treatment. We i.p. injected
100 mg kg-1 NAC into mice then anal yzed after 12 hours (n=3 ) . (c) Quantitative real-time
PCR of p38famil y in indicated subsets (n=3). ( d) Western blot anal yses of lin- cells (r epeated
3 times). ( e) Real-time PCR of TXNIP i n LT -HSCs (n=3). ( f) Confocal images of TXNIP in
LT-HSCs (rep eated 3 times). (g) Western blot anal yses of BM cells (rep eated 2 times). ( h,i )
GST pull-down assa y (repeated 3 times). ( j) Constructed p38 mutant clones. ( k) GST pull-
down assays between TXNIP and p38 mutants (repeated 3 times). Data are mean ± s.d.
Statistical significance was determined using a two-tailed Student’s t -tests. **P < 0.01.
matched WT mice (Fig. 1b). To make the data more consistent, the authors should present
their data as percentages of bone marrow cells and absolute number of LT-HSCs, SH-HSCs
Thank you for your valuable comments. We calculated the percentages of bone
marrow cells and absolute number of LT-HSCs, SH-HSCs and MPPs, and presented
the results in our new version Supplementary Fig. 1c,d.
the exhaustion of HSCs in TXNIP-/- mice by high ROS. We have added this text
“Next, we analyzed the frequency of BM cells and absolute number of LT-HSCs,
ST-HSCs and MPPs in each mouse. […]

old HSCs = test: Polar distribution of Cdc42 in LT-HSCs (confocal); assay type: cell-based, mouse; details: sorted LT-HSCs, 10 μM, 16 h in HSC media; 50-60 HSCs scored for Cdc42 polarity; repeated two times
Procedure: For phosho-p38 and TXNIP analysis using flow cytometry, total BM cells were first stained with surface markers and then fixed and permeabilized with the Cytofix/Perm Solution (BD Biosciences). For TXNIP staining, the cells were blocked with PBS containing 5% BSA for 30 min at RT and then incubated with primary antibody (1:50 dilution) for 1 h in PBS containing 5% BSA, washed three times with PBS and then incubated with a secondary Alexa Fluor 647 (Life technology; 1:1,000 dilution) for 1 h at RT or for phospho-p38 staining, the cells were incubated with anti-phospho-p38-APC (1:40 dilution) at 4 °C for 30 min in PBS containing 2% FBS. For confocal imaging, freshly isolated LT-HSCs were seeded on fibronectin-coated coverslips at 4 °C for 10 min and were immediately fixed. After fixation, cells were permeabilized with 0.2% Triton X-100 for 20 min and blocked with PBS containing 5% BSA for 30 min at RT. Cells were stained primary and secondary antibodies for 1 h at RT and then were mounted with DAPI containing mounting reagent (Molecular Probes). […] After fixation, cells were permeabilized with 0.2% Triton X-100 for 20 min and blocked with PBS containing 5% BSA for 30 min at RT. […] Fifty to sixty individual HSCs were scored for polarity of Cdc42. […]

TXNIP-p38 interaction = TXNIP-p38 interaction (immunoprecipitation, in situ PLA, GST pull-down); assay type: cell-based; details: GST pull-down assay in 293T cells
aged HSCs = test: Competitive transplantation of treated HSCs; assay type: in vivo, mouse; details: long-term SB203580-administered recipients; n=6-7 from two experiments (Fig. 3d,e)
Text: The repopulation of donor-derived cells was monitored by staining PB from tail vein and BM cells with antibodies against indicated surface markers after 16 weeks.

Solubility = assay type: physicochemical; details: authors' statement in response to reviewers
p38α = test: In vitro kinase assay for p38 (phospho-ATF2 read-out); assay type: biochemical, human; details: His-p38α, phospho-ATF2 levels; repeated 2 times (Suppl. Fig. 4b)
Procedure: To examine the kinase activity of p38 in vitro, we used p38 MAP Kinase assay kit (9820, Cell Signaling). We added 0.5–1 μg of His-p38α for kinase assay and its activity was determined by phospho-ATF2 levels. […] FLAG-p38α, β, γ and δ were expressed in 293T cells (ATCC). p38 isoforms were immunoprecipitated with α-FLAG antibody (Sigma; 1:250 dilution) then we performed in vitro kinase assay.

Molecule: CC(=O)N[C@@H](CS)C(=O)O [NAC, N-acetyl-L-cysteine]
- 5-FU-induced ROS in HSCs (mice; 5-FU 150 mg kg−1 and NAC 100 mg kg−1 i.p., ROS after 24 hours, n=3): reversed
- rescue of TXNIP−/− mice from 5-FU-induced leucopenia (survival) (mice; young mice, 5-FU 150 mg kg−1, NAC 100 mg kg−1 i.p. daily from day −1, n=10): fully rescued
- ROS level in HSCs (TXNIP−/− HSCs): decreased
- p38 activation in HSCs (TXNIP−/− HSCs): decreased

Molecule: C[S+]([O-])c1ccc(-c2nc(-c3ccncc3)c(-c3ccc(F)cc3)[nH]2)cc1 (stereo not shown) [SB203580]
- % of polarized cells (Old HSCs) (old HSCs): 76.9%
- p38 interaction ability with TXNIP (TXNIP-p38 interaction): did not affect
- p38 activity and ROS in donor-derived HSCs (aged HSCs): maintained low levels of p38 activity and ROS
- solubility (Solubility): DMSO soluble

Molecule: YGRKKRRQRRR [TAT]
- % of polarized cells (Old HSCs) (old HSCs): 9.3%

B1: GST-TXNIP-T: GST-fused truncation mutant for TXNIP (150a.a–317a.a) (protein)
chain: DVNTPDLMAPVSAKKEKKVSCMFIPDGRVSVSARIDRKGFCEGDEISIHADFENTCSRIVVPKAAIVARHTYLANGQTKVLTQKLSSVRGNHIISGTCASWRGKSLRVQKIRPSILGCNILRVEYSLLIYVSVPGSKKVILDLPLVIGSRSGLSSRTSSMASRTSSEM
modifications: left off: GST, end not stated, kept
- p38 kinase activity in vitro (p38α): inhibited p38 kinase activity in vitro
